Source: patent US12577247B2 (BUGWORKS RESEARCH, INC., priority 2021, dated 2026)

Assays:
A2B receptor [1] = target: T1, A2B receptor (Homo sapiens, UniProt P29275); assay: A2bR antagonism IC50, cAMP TR-FRET (Lance Ultra) in HEK-293 cells, NECA as agonist; format: cell-based; parameters: host or cells: HEK-293; conditions: HEK-293 cells expressing A2B receptor; agonist NECA 30 nM (EC90); inhibition of cAMP
T1 sequence (P29275 1-332): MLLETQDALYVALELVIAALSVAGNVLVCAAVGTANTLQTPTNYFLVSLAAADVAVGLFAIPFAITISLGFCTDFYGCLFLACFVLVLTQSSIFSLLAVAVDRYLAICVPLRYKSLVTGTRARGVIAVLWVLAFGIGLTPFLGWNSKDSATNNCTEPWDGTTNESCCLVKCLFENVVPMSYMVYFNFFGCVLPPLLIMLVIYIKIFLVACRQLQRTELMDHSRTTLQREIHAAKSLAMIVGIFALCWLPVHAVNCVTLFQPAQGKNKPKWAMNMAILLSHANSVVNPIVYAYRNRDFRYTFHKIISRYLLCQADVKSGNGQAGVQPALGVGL
Text: Adenosine A2A receptors and Adenosine A2B receptors induce the production of cAMP when activated/stimulated by an agonist like adenosine or 5′-(N-Ethylcarboxamido) adenosine (NECA). A Time-Resolved Fluorescence Energy Transfer (TR-FRET) assay was used to show the inhibition of this cAMP production in HEK cells upon treatment with compounds of the Formula I of the present disclosure.
HEK-293 cells expressing A2A receptor (#ES-011-C) or A2B receptor (#ES 013-C) were obtained from PerkinElmer. Cells were maintained in DMEM medium supplemented with 10% FBS and 200 μg/mL of G418 at 37° C. and 5% CO2. The cells were cultured in antibiotic free medium for a period of 16-20 hours prior to the assay. All subsequent steps of the assay are performed at room temperature (22-24° C.). The cells were harvested at about 80% confluency by gentle flushing with PBS, recovered by centrifugation and resuspended in stimulation buffer at the concentration of 5.0×10^6 cells/mL.
The assays were conducted in a stimulation buffer containing 1×DMEM, 5 mM HEPES, 0.1% BSA stabilizer and 20-30 μM Rolipram. Serial dilutions of compounds were made in stimulation buffer to achieve a final concentration of high micromolar (10 μM to 0.08 nM) in the reaction volume of 10 μL. The total reaction volume was 10 μL (5 μL of cells, 2.5 μL of antagonist and 2.5 μL of agonist). The stimulation was ended, and the reaction completed by adding 5 μL of 4× Eu-cAMP tracer working solution and 5 μL of 4× ULight-anti-cAMP working solution. The TR-FRET signal was measured after 1-hour incubation using a Tecan M1000 reader.

A2B receptor [2] = target: T1, A2B receptor; assay: A2bR antagonism IC50, cAMP TR-FRET in HEK-293 cells, high concentration of adenosine (30 μM); conditions: A2BR IC50 (nM) (@30 μM Adenosine), HEK-293 cells expressing A2B receptor; agonist adenosine 30 μM; 2% HSA; inhibition of cAMP;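 further: compounds preincubated 10 min with cells, then adenosine stimulation 30 min at room temperature in buffer with Rolipram 100 µM and EHNA 30 µM, TR-FRET read after 1 h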
A2A receptor = target: T2, A2A receptor (Homo sapiens, UniProt P29274); assay: A2aR antagonism IC50, cAMP TR-FRET in HEK-293 cells, high concentration of adenosine (30 μM); format: cell-based; conditions: HEK-293 cells expressing A2A receptor; agonist adenosine 30 μM; 2% HSA; inhibition of cAMP; read-out: A2AR IC50 (nM) (@30 μM Adenosine);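 further: compounds added 10 min before adenosine, then 30 min stimulation at room temperature in buffer with 100 µM rolipram and 30 µM EHNA, signal read 1 h after detection reagents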
T2 construct: host or cells: HEK-293
T2 sequence (P29274 whole entry): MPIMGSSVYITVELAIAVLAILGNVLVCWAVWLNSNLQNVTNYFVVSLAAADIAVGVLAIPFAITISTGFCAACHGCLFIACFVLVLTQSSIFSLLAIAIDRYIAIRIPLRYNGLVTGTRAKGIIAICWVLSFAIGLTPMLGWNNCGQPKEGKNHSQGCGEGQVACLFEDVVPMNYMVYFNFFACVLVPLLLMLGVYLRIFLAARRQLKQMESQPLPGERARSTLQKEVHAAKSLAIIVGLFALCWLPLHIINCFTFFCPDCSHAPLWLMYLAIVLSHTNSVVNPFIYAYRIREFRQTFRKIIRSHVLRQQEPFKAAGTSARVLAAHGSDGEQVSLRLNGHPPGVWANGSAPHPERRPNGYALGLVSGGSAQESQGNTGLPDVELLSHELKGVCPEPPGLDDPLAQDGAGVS

Cc1cccc(CCNc2nc3c(CC(C)C)c(C)nn3c(N)c2C#N)n1 [Example 27, 7-amino-3-(isopropylmethyl)-2-methyl-5-((2-(6-methylpyridin-2-yl)ethyl)amino) pyrazolo[1,5-a]pyrimidine-6-carbonitrile] was tested, and the IC50 (A2B receptor [1]) was 654 nM.

With CCc1c(C)nn2c(N)c(C#N)c(NCCc3ccn(C)n3)nc12 [Example 30] the IC50 (A2B receptor [1]) was 4.5 nM.

Cc1cccc(CC(C)Nc2nc3c(C)c(C)nn3c(N)c2C#N)n1 (single isomer, unassigned) [Example 15, 7-amino-2,3-dimethyl-5-{[1-(6-methylpyridin-2-yl)propan-2-yl]amino}pyrazolo[1,5-a]pyrimidine-6-carbonitrile] was tested, and the IC50 (A2B receptor [1]) was 102 nM.

In the case of Cc1nn2c(N)c(C#N)c(NCCc3ccn(CC4CC(O)C4)n3)nc2c1Cl (racemic) [Example 82, (+−)-7-amino-3-chloro-5-((2-(1-((3-hydroxycyclobutyl)methyl)-1H-pyrazol-3-yl)ethyl)amino)-2-methylpyrazolo[1,5-a]pyrimidine-6-carbonitrile], the IC50 (A2B receptor [2]) is reported as 2340 nM, the IC50 (A2A receptor) is reported as 110 nM and the IC50 (A2B receptor [1]) is reported as 7 nM.

For CCc1c(C)nn2c(N)c(C#N)c(NCCc3ccn(CC4CC(O)C4)n3)nc12 (centres unmarked) [Example 85, 7-amino-3-ethyl-5-((2-(1-((3-hydroxycyclobutyl)methyl)-1H-pyrazol-3-yl)ethyl)amino)-2-methylpyrazolo[1,5-a] pyrimidine-6-carbonitrile], the IC50 (A2B receptor [2]) was 1070 nM, the IC50 (A2A receptor) was 211 nM and the IC50 (A2B receptor [1]) was 3 nM.

CCc1c(C)nn2c(N)c(C#N)c(NC(C)Cc3cccc(C)n3)nc12 (racemic) [Example 24, 7-Amino-3-ethyl-2-methyl-5-((1-(6-methylpyridin-2-yl)propan-2-yl)amino) pyrazolo[1,5-a]pyrimidine-6-carbonitrile] was tested, and the IC50 (A2B receptor [1]) was 2.5 nM.

With Cc1nn2c(N)c(C#N)c(NCc3cccc(C(C)(C)O)n3)nc2c1C [Example 9, 7-amino-5-({[6-(2-hydroxypropan-2-yl)pyridin-2-yl]methyl}amino)-2,3-dimethylpyrazolo[1,5-a] pyrimidine-6-carbonitrile] the IC50 (A2B receptor [1]) was 1130 nM.

CCc1c(C(F)F)nn2c(N)c(C#N)c(NCCc3cccc(C4CC4CO)n3)nc12 (centres unmarked) [Example 59, 7-amino-2-(difluoromethyl)-3-ethyl-5-((2-(6-(2-(hydroxymethyl)cyclopropyl)pyridin-2-yl)ethyl)amino)pyrazolo[1,5-a]pyrimidine-6-carbonitrile] gave an IC50 (A2A receptor) of 1080 nM and an IC50 (A2B receptor [1]) of 9 nM.

CCc1c(C)nn2c(N)c(C#N)c(NCCc3cccc(C4CC4CO)n3)nc12 (centres unmarked) [Example 60, 7-amino-3-ethyl-5-((2-(6-(2-(hydroxymethyl)cyclopropyl)284yridine-2-yl)ethyl)amino)-2-methylpyrazolo[1,5-a]pyrimidine-6-carbonitrile] showed an IC50 (A2A receptor) of 211 nM and an IC50 (A2B receptor [1]) of 0.94 nM.

In the case of CCc1cccc(CCNc2nc3c(Cl)c(C)nn3c(N)c2C#N)n1 [Example 120, 7-amino-3-chloro-5-((2-(6-ethylpyridin-2-yl)ethyl)amino)-2-methylpyrazolo[1,5-a]pyrimidine-6-carbonitrile], the IC50 (A2B receptor [2]) is reported as 8630 nM and the IC50 (A2A receptor) is reported as 529 nM.

With Cc1nn2c(N)c(C#N)c(NCCc3cccn(CCCN)c3=O)nc2c1Cl [Example 129, 7-amino-5-((2-(1-(3-aminopropyl)-2-oxo-1,2-dihydropyridin-3-yl)ethyl)amino)-3-chloro-2-methylpyrazolo[1,5-a]pyrimidine-6-carbonitrile] the IC50 (A2B receptor [2]) was 5660 nM and the IC50 (A2A receptor) was 237 nM.

Cc1nn2c(N)c(C#N)c(NCCc3ccn(C4CCC4CO)n3)nc2c1CC1CC1 (centres unmarked) [Example 116, 7-amino-3-(cyclopropylmethyl)-5-((2-(1-(2-(hydroxymethyl)cyclobutyl)-1H-pyrazol-3-yl)ethyl)amino)-2-methylpyrazolo[1,5-a]pyrimidine-6-carbonitrile] was tested, and the IC50 (A2B receptor [2]) was 2100 nM and the IC50 (A2A receptor) was 427 nM.

In the case of Cc1nn2c(N)c(C#N)c(NCCc3cccc(CO)n3)nc2c1Br [Example 72, 7-amino-3-bromo-5-((2-(6-(hydroxymethyl)pyridine-2-yl)ethyl)amino)-2-methylpyrazolo[1,5-a]pyrimidine-6-carbonitrile], the IC50 (A2B receptor [2]) is reported as 3120 nM and the IC50 (A2A receptor) is reported as 362 nM.

In the case of CCc1c(C)nn2c(N)c(C#N)c(NCCc3ccn(C4CCC4CNCC(N)=O)n3)nc12 (centres unmarked) [Example 134, 2-(((2-(3-(2-((7-amino-6-cyano-3-ethyl-2-methylpyrazolo[1,5-a]pyrimidin-5-yl)amino)ethyl)-1H-pyrazol-1-yl)cyclobutyl)methyl)amino) acetamide], the IC50 (A2B receptor [2]) is reported as 2510 nM and the IC50 (A2A receptor) is reported as 475 nM.

For CCc1c(C)nn2c(N)c(C#N)c(NCCc3ccn(C4(CNCCO)CC4)n3)nc12 [Example 106, 7-amino-3-ethyl-5-((2-(1-(1-(((2-hydroxyethyl)amino)methyl)cyclopropyl)-1H-pyrazol-3-yl)ethyl)amino)-2-methylpyrazolo[1,5-a]pyrimidine-6-carbonitrile], the IC50 (A2B receptor [2]) was 4390 nM and the IC50 (A2A receptor) was 75 nM.

CCc1c(C)nn2c(N)c(C#N)c(NCCc3ccc(F)c(CO)n3)nc12 [Example 91, 7-amino-3-ethyl-5-((2-(5-fluoro-6-(hydroxymethyl)315yridine-2-yl)ethyl)amino)-2-methylpyrazolo[1,5-a]pyrimidine-6-carbonitrile] gave an IC50 (A2B receptor [2]) of 1620 nM and an IC50 (A2A receptor) of 628 nM.

CCc1c(C)nn2c(N)c(C#N)c(NCCc3cccc(C(C)O)n3)nc12 (single isomer, unassigned; (+)) [Example 159a, (+)-7-amino-3-ethyl-5-((2-(6-(1-hydroxyethyl)pyridin-2-yl)ethyl)amino)-2-methylpyrazolo[1,5-a]pyrimidine-6-carbonitrile] gave an IC50 (A2B receptor [2]) of 911 nM and an IC50 (A2A receptor) of 139 nM.

Molecule Cc1cncc(CCNc2nc3c(C)c(C)nn3c(N)c2C#N)n1 [Example 140, 7-amino-2,3-dimethyl-5-((2-(6-methylpyrazin-2-yl)ethyl)amino) pyrazolo[1,5-a]pyrimidine-6-carbonitrile] has an IC50 (A2B receptor [2]) greater than 15000 nM and an IC50 (A2A receptor) of 6020 nM.

Molecule CCc1c(C)nn2c(N)c(C#N)c(NCCc3cccc(C(C)O)n3)nc12 (racemic) [Example 100, 7-amino-3-ethyl-5-((2-(6-(1-hydroxyethyl)pyridin-2-yl)ethyl)amino)-2-methylpyrazolo[1,5-a] pyrimidine-6-carbonitrile] has an IC50 (A2B receptor [2]) of 1010 nM and an IC50 (A2A receptor) of 139 nM.

CCc1c(C)nn2c(N)c(C#N)c(NCCc3ccn(C4(CCN)CC4)n3)nc12 [Example 148, 7-amino-5-((2-(1-(1-(2-aminoethyl)cyclopropyl)-1H-pyrazol-3-yl)ethyl)amino)-3-ethyl-2-methylpyrazolo[1,5-a] pyrimidine-6-carbonitrile] showed an IC50 (A2B receptor [2]) of 2740 nM and an IC50 (A2A receptor) of 161 nM.

With CCc1c(C)nn2c(N)c(C#N)c(NCCc3cccn(CC[S+](C)[O-])c3=O)nc12 (single isomer, unassigned; (+)) [Example 144a, (+)7-amino-3-ethyl-2-methyl-5-((2-(1-(2-(methylsulfinyl)ethyl)-2-oxo-1,2-dihydropyridin-3-yl)ethyl)amino) pyrazolo[1,5-a]pyrimidine-6-carbonitrile] the IC50 (A2B receptor [2]) was 821 nM and the IC50 (A2A receptor) was 327 nM.

CCc1c(C)nn2c(N)c(C#N)c(NCCc3cccc(OC)n3)nc12 [Example 20, 7-Amino-3-ethyl-5-((2-(6-methoxypyridin-2-yl)ethyl)amino)-2-methylpyrazolo [1,5-a]pyrimidine-6-carbonitrile] showed an IC50 (A2B receptor [1]) of 4 nM.

For Cc1nn2c(N)c(C#N)c(NCCc3cccn(CCCN)c3=O)nc2c1C [Example 141, 7-amino-5-((2-(1-(3-aminopropyl)-2-oxo-1,2-dihydropyridin-3-yl)ethyl)amino)-2,3-dimethylpyrazolo[1,5-a]pyrimidine-6-carbonitrile], the IC50 (A2B receptor [2]) was 4750 nM and the IC50 (A2A receptor) was 679 nM.

Work on CCCc1c(C)nn2c(N)c(C#N)c(NCCc3ccn(C4COCC4CO)n3)nc12 (single isomer, unassigned; (+)) [Example 160a, (+) 7-amino-5-((2-(1-(4-(hydroxymethyl)tetrahydrofuran-3-yl)-1H-pyrazol-3-yl)ethyl)amino)-2-methyl-3-propylpyrazolo[1,5-a]pyrimidine-6-carbonitrile] yielded an IC50 (A2B receptor [2]) of 1930 nM and an IC50 (A2A receptor) of 579 nM.

Molecule CCc1c(C)nn2c(N)c(C#N)c(NCCc3cccn(CC4CC(O)C4)c3=O)nc12 (centres unmarked) [Example 128, 7-amino-3-ethyl-5-((2-(1-((3-hydroxycyclobutyl)methyl)-2-oxo-1,2-dihydropyridin-3-yl)ethyl)amino)-2-methylpyrazolo[1,5-a]pyrimidine-6-carbonitrile] has an IC50 (A2B receptor [2]) of 1110 nM and an IC50 (A2A receptor) of 368 nM.

CCc1c(C)nn2c(N)c(C#N)c(NCCc3cccn(C)c3=O)nc12 [Example 88, 7-amino-3-ethyl-2-methyl-5-((2-(1-methyl-2-oxo-1,2-dihydropyridin-3-yl)ethyl)amino) pyrazolo[1,5-a]pyrimidine-6-carbonitrile] gave an IC50 (A2B receptor [2]) of 1300 nM and an IC50 (A2A receptor) of 286 nM.

CCc1c(C)nn2c(N)c(C#N)c(NCCc3cccn(CCCN)c3=O)nc12 [Example 136, 7-amino-5-((2-(1-(3-aminopropyl)-2-oxo-1,2-dihydropyridin-3-yl)ethyl)amino)-3-ethyl-2-methylpyrazolo[1,5-a]pyrimidine-6-carbonitrile] showed an IC50 (A2B receptor [2]) of 2610 nM and an IC50 (A2A receptor) of 506 nM.
